System: C3 fragment deposition on artificial PNH cells
Assay: C3 fragment deposition on artificial PNH cells (flow cytometry)
Type: cell-based
Settings: 32% acidified C5-depleted normal human serum; read-out: IC50, inhibition of C3 fragment deposition on artificial PNH cells
Protocol: C5-depleted normal human serum (C5-Dpl NHS), gelatin veronal buffer (GVB) without Ca^++ and Mg^++ (GVB^0), 100 mM MgCl2+100 mM EGTA (MgEGTA) were obtained from Complement Technology Inc. (Tyler, TX). GVB^0·MgEGTA was prepared by mixing GVB^0 and 100 mM MgEGTA in a 9:1 ratio. FITC-conjugated anti-C3c antibody (cat #ab4212) and Alexa Fluor® 647-conjugated anti human CD59 antibody (cat #:ab187769) were purchased from Abcam (Cambridge, MA). […] Ferrone, and F. Mercuriali, The Action of Two Sulfhydryl Compounds on Normal Human Red Cells. Relationship to Red Cells of Paroxysmal Nocturnal Hemoglobinuria. Blood, 1965. 25: p. 502-10). After AET treatment, artificial PNH erythrocytes were centrifuged, supernatant was aspirated and cells were thoroughly washed with phosphate buffered saline (PBS) 3 times followed by washing with GVB^0 buffer ([…]) for additional 3 times. […] C3 fragment deposition on the surface of the erythrocytes was assessed by flow cytometry with BD Accuri C6 cytometer (BD Biosciences, San Jose, CA). […] IC50 values from each experiment were determined by curve-fitting of experimental data (the % C3 fragment-positive cells at increasing concentrations of inhibitor) to the four-parameter sigmoidal dose-response equation using non-linear regression analysis (Prism Software, GraphPad, La Jolla, CA).

CC(=O)c1nn(CC(=O)N2C[C@H](F)C[C@H]2C(=O)Nc2cccc(Br)n2)c2ccc(-c3cnc(C)nc3)cc12 [Compound 1, (2S,4R)-1-(2-(3-acetyl-5-(2-methylpyrimidin-5-yl)-1H-indazol-1-yl)acetyl)-N-(6-bromopyridin-2-yl)-4-fluoropyrrolidine-2-carboxamide]
IC50: 27 nM
